Source: patent US9555022B2, “Substituted triazolopyridines” (Bayer Intellectual Property GmbH, priority 2010, dated 2017)
Structures can show the parent of a compound that is named as a salt.

target: human full length recombinant Mps-1 kinase (Homo sapiens (Human), UniProt P33981); assay: Mps-1 Kinase Assay (TR-FRET); format: biochemical; details: 10 μM ATP, 1 μM biotinylated peptide substrate, 60 min at 22° C., read-out: Mps-1 Inhibition, IC50 in M
Procedure: The human kinase Mps-1 phosphorylates a biotinylated substrate peptide. Detection of the phosphorylated product is achieved by time-resolved fluorescence resonance energy transfer (TR-FRET) from Europium-labelled anti-phospho-Serine/Threonine antibody as donor to streptavidin labelled with cross-linked allophycocyanin (SA-XLent) as acceptor. Compounds are tested for their inhibition of the kinase activity.
N-terminally GST-tagged human full length recombinant Mps-1 kinase (purchased from Invitrogen, Karslruhe, Germany, cat. no PV4071) was used. As substrate for the kinase reaction a biotinylated peptide of the amino-acid sequence […] (C-terminus in amide form, purchased from Biosynthan GmbH, Berlin) was used.
The concentration of Mps-1 in the assay was adjusted to the activity of the enzyme lot and was chosen appropriate to have the assay in the linear range, typical enzyme concentrations were in the range of about 1 nM (final conc. in the 5 μl assay volume).
The resulting mixture was incubated 1 h at 22° C. to allow the binding of the phosphorylated peptide to the anti-phospho(Ser/Thr)-Europium-antibody. Subsequently the amount of phosphorylated substrate was evaluated by measurement of the resonance energy transfer from the Europium-labelled anti-phospho(Ser/Thr) antibody to the Streptavidin-XLent.

human full length recombinant Mps-1 kinase, sequence (P33981 whole entry): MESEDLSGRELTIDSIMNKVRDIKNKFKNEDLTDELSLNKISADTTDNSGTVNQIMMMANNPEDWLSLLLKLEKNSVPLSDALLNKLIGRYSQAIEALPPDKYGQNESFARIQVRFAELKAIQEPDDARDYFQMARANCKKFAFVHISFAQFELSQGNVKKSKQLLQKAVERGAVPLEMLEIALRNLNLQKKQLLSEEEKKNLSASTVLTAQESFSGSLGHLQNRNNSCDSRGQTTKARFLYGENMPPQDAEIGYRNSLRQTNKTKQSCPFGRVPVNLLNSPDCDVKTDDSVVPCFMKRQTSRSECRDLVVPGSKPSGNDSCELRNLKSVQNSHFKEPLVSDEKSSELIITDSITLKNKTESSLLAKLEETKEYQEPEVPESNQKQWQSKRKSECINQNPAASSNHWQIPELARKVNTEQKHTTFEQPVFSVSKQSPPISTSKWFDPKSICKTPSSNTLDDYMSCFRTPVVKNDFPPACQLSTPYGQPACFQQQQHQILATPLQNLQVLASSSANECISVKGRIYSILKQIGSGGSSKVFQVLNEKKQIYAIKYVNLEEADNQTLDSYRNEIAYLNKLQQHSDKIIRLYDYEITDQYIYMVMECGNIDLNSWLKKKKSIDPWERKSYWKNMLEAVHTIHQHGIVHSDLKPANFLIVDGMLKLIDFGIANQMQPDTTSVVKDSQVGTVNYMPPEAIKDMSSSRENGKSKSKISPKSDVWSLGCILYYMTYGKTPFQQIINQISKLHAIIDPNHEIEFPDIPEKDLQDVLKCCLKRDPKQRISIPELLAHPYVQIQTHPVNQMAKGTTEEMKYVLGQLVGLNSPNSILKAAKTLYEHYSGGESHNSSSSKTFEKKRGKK

Row | SMILES | IC50 [nM]
1 | CCOc1cc(C(=O)N2CCOCC2)ccc1Nc1nc2ccc(-c3ccc(NC(=O)Cc4ccc(F)cc4)cc3)cn2n1 [Example 02.02, N-[4-(2-{[2-ethoxy-4-(morpholin-4-ylcarbonyl)phenyl]amino}[,2]-triazolo[1,5-a]pyridin-6-yl)phenyl]-2-(4-fluorophenyl)acetamide] | ≤ 1
2 | CCOc1cc(C(=O)N2CCNCC2)ccc1Nc1nc2ccc(-c3ccc(NC(=O)Cc4ccc(F)cc4)cc3)cn2n1 [Example 02.06, N-[4-(2-{[2-ethoxy-4-(piperazin-1-ylcarbonyl)phenyl]amino}[,2]-triazolo[1,5-a]pyridin-6-yl)phenyl]-2-(4-fluorophenyl)acetamide] | ≤ 1
3 | COc1cc(N2CCN(C)CC2)ccc1Nc1nc2ccc(-c3ccc(NC(=O)Cc4ccc(F)cc4)cc3)cn2n1 [Example 02.08, 2-(4-fluorophenyl)-N-[4-(2-{[2-methoxy-4-(4-methylpiperazin-1-yl)phenyl]amino}[,2]-triazolo[1,5-a]pyridin-6-yl)phenyl]acetamide trifluoroacetate] | 1.05
4 | CCOc1cc(N2CCOC2=O)ccc1Nc1nc2ccc(-c3ccc(NC(=O)Cc4ccc(F)cc4)cc3)cn2n1 [Example 02.12, N-[4-(2-{[2-ethoxy-4-(2-oxo-1,3-oxazolidin-3-yl)phenyl]amino}[,2]-triazolo[1,5-a]pyridin-6-yl)phenyl]-2-(4-fluorophenyl)acetamide] | ≤ 1
5 | Cc1cc(N2CCOC2=O)ncc1Nc1nc2ccc(-c3ccc(NC(=O)Cc4ccc(F)cc4)cc3)cn2n1 [Example 02.13, 2-(4-fluorophenyl)-N-[4-(2-{[4-methyl-6-(2-oxo-1,3-oxazolidin-3-yl)pyridin-3-yl]amino}[,2]-triazolo[1,5-a]pyridin-6-yl)phenyl]acetamide] | ≤ 1
6 | COc1cc(C(=O)N2CC(O)C2)ccc1Nc1nc2ccc(-c3ccc(NC(=O)Cc4ccc(F)cc4)cc3)cn2n1 [Example 02.19, 2-(4-fluorophenyl)-N-{4-[2-({4-[(3-hydroxyazetidin-1-yl)carbonyl]-2-methoxyphenyl}amino)[,2]triazolo[1,5-a]pyridin-6-yl]phenyl}acetamide] | ≤ 1
7 | COc1cc(C(=O)N2CCC(O)CC2)ccc1Nc1nc2ccc(-c3ccc(NC(=O)Cc4ccc(F)cc4)cc3)cn2n1 [Example 02.20, 2-(4-fluorophenyl)-N-{4-[2-({4-[(4-hydroxypiperidin-1-yl)carbonyl]-2-methoxyphenyl}amino)[,2]triazolo[1,5-a]pyridin-6-yl]phenyl}acetamide] | ≤ 1
8 | COc1cc(C(=O)NC2COC2)ccc1Nc1nc2ccc(-c3ccc(NC(=O)Cc4ccc(F)cc4)cc3)cn2n1 [Example 02.21, 4-{[6-(4-{[(4-fluorophenyl)acetyl]amino}phenyl)[,2]triazolo[1,5-a]pyridin-2-yl]amino}-3-methoxy-N-(oxetan-3-yl)benzamide] | ≤ 1
9 | CCOc1cc(C(=O)N2CC(O)C2)ccc1Nc1nc2ccc(-c3ccc(NC(=O)Cc4ccc(F)cc4)cc3)cn2n1 [Example 02.24, N-{4-[2-({2-ethoxy-4-[(3-hydroxyazetidin-1-yl)carbonyl]phenyl}amino)[,2]triazolo[1,5-a]pyridin-6-yl]phenyl}-2-(4-fluorophenyl)acetamide] | ≤ 1
10 | CCOc1cc(C(=O)NC2CCN(C)CC2)ccc1Nc1nc2ccc(-c3ccc(NC(=O)Cc4ccc(F)cc4)cc3)cn2n1 [Example 02.25, 3-ethoxy-4-{[6-(4-{[(4-fluorophenyl)acetyl]amino}phenyl)[,2]-triazolo[1,5-a]pyridin-2-yl]amino}-N-(1-methylpiperidin-4-yl)benzamide] | ≤ 1
11 | O=C(Cc1ccc(F)cc1)Nc1ccc(-c2ccc3nc(Nc4ccc(C(=O)N5CC6(COC6)C5)cc4OCC(F)(F)F)nn3c2)cc1 [Example 02.26, 2-(4-fluorophenyl)-N-[4-(2-{[4-(2-oxa-6-azaspiro[3.3]hept-6-ylcarbonyl)-2-(2,2,2-trifluoroethoxy)phenyl]amino}[,2]triazolo[1,5-a]pyridin-6-yl)phenyl]acetamide] | ≤ 1
12 | O=C(Cc1ccc(F)cc1)Nc1ccc(-c2ccc3nc(Nc4ccc(C(=O)N5CC(O)C5)cc4OCC(F)(F)F)nn3c2)cc1 [Example 02.27, 2-(4-fluorophenyl)-N-{4-[2-({4-[(3-hydroxyazetidin-1-yl)carbonyl]-2-(2,2,2-trifluoroethoxy)phenyl}amino)[,2]triazolo[1,5-a]pyridin-6-yl]phenyl}acetamide] | ≤ 1
13 | COc1cc(N2CCN(C)CC2)ccc1Nc1nc2ccc(-c3ccc(NC(=O)Cc4ccc(F)cc4)cc3)cn2n1 [Example 02.28, 2-(4-fluorophenyl)-N-[4-(2-{[2-methoxy-4-(4-methylpiperazin-1-yl)phenyl]amino}[,2]-triazolo[1,5-a]pyridin-6-yl)phenyl]acetamide] | ≤ 1

The next lines start with the values.

Row | IC50 [nM] | SMILES
14 | 5.56 | COc1cc(C(=O)N2CCOCC2)ccc1Nc1nc2ccc(-c3ccc(NC(=O)CC4CC4)cc3)cn2n1 [Example 01.01, 2-cyclopropyl-N-[4-(2-{[2-methoxy-4-(morpholin-4-ylcarbonyl)phenyl]amino}[,2]-triazolo[1,5-a]pyridin-6-yl)phenyl]acetamide]
15 | ≤ 1 | CCOc1cc(C(=O)N2CCOCC2)ccc1Nc1nc2ccc(-c3ccc(NC(=O)CC4CC4)cc3)cn2n1 [Example 01.02, 2-cyclopropyl-N-[4-(2-{[2-ethoxy-4-(morpholin-4-ylcarbonyl)phenyl]amino}[,2]-triazolo[1,5-a]pyridin-6-yl)phenyl]acetamide]
16 | 6.02 | COc1cc(N2CCN(C)CC2)ccc1Nc1nc2ccc(-c3ccc(NC(=O)CC4CC4)cc3)cn2n1 [Example 01.03, 2-cyclopropyl-N-[4-(2-{[2-methoxy-4-(4-methylpiperazin-1-yl)phenyl]amino}[,2]-triazolo[1,5-a]pyridin-6-yl)phenyl]acetamide trifluoroacetate]
17 | 1.04 | COc1cc(C2=NC(C)(C)CO2)ccc1Nc1nc2ccc(-c3ccc(NC(=O)Cc4ccc(F)cc4)cc3)cn2n1 [Example 02.03, N-[4-(2-{[4-(4,4-dimethyl-4,5-dihydro-1,3-oxazol-2-yl)-2-methoxyphenyl]amino}[,2]-triazolo[1,5-a]pyridin-6-yl)phenyl]-2-(4-fluorophenyl)acetamide]
18 | ≤ 1 | COc1cc(C(=O)N2CCN(C)CC2)ccc1Nc1nc2ccc(-c3ccc(NC(=O)Cc4ccc(F)cc4)cc3)cn2n1 [Example 02.04, 2-(4-fluorophenyl)-N-{4-[2-({2-methoxy-4-[(4-methylpiperazin-1-yl)carbonyl]phenyl}amino)[,2]triazolo[1,5-a]pyridin-6-yl]phenyl}acetamide]
19 | ≤ 1 | CCOc1cc(C(=O)N2CCN(C(=O)OC(C)(C)C)CC2)ccc1Nc1nc2ccc(-c3ccc(NC(=O)Cc4ccc(F)cc4)cc3)cn2n1 [Example 02.05, tert-butyl 4-(3-ethoxy-4-{[6-(4-{[(4-fluorophenyl)acetyl]amino}phenyl)[,2]triazolo[1,5-a]pyridin-2-yl]amino}benzoyl)piperazine-1-carboxylate]
20 | ≤ 1 | CCOc1cc(C(=O)N2CCN(CC3CC3)CC2)ccc1Nc1nc2ccc(-c3ccc(NC(=O)Cc4ccc(F)cc4)cc3)cn2n1 [Example 02.07, N-(4-{2-[(4-{[4-(cyclopropylmethyl)piperazin-1-yl]carbonyl}-2-ethoxyphenyl)amino][,2]triazolo[1,5-a]pyridin-6-yl}phenyl)-2-(4-fluorophenyl)acetamide]
21 | ≤ 1 | O=C(Cc1ccc(F)cc1)Nc1ccc(-c2ccc3nc(Nc4ccc(C(=O)N5CCOCC5)cc4OC(F)(F)F)nn3c2)cc1 [Example 02.10, 2-(4-fluorophenyl)-N-[4-(2-{[4-(morpholin-4-ylcarbonyl)-2-(trifluoromethoxy)phenyl]amino}[,2]-triazolo[1,5-a]pyridin-6-yl)phenyl]acetamide]
22 | ≤ 1 | COc1cc(C2=NCCO2)ccc1Nc1nc2ccc(-c3ccc(NC(=O)Cc4ccc(F)cc4)cc3)cn2n1 [Example 02.14, N-[4-(2-{[4-(4,5-dihydro-1,3-oxazol-2-yl)-2-methoxyphenyl]amino}[,2]-triazolo[1,5-a]pyridin-6-yl)phenyl]-2-(4-fluorophenyl)acetamide]
23 | ≤ 1 | Cc1cc(C2=NCCO2)ccc1Nc1nc2ccc(-c3ccc(NC(=O)Cc4ccc(F)cc4)cc3)cn2n1 [Example 02.15, N-[4-(2-{[4-(4,5-dihydro-1,3-oxazol-2-yl)-2-methylphenyl]amino}[,2]triazolo[1,5-a]pyridin-6-yl)phenyl]-2-(4-fluorophenyl)acetamide]
24 | ≤ 1 | COc1cc(C(=O)N2CCS(=O)(=O)CC2)ccc1Nc1nc2ccc(-c3ccc(NC(=O)Cc4ccc(F)cc4)cc3)cn2n1 [Example 02.18, N-{4-[2-({4-[(1,1-dioxidothiomorpholin-4-yl)carbonyl]-2-methoxyphenyl}amino)[,2]triazolo[1,5-a]pyridin-6-yl]phenyl}-2-(4-fluorophenyl)acetamide]
25 | ≤ 1 | COc1cc(C(=O)N2CCC2)ccc1Nc1nc2ccc(-c3ccc(NC(=O)Cc4ccc(F)cc4)cc3)cn2n1 [Example 02.22, N-[4-(2-{[4-(azetidin-1-ylcarbonyl)-2-methoxyphenyl]amino}[,2]-triazolo[1,5-a]pyridin-6-yl)phenyl]-2-(4-fluorophenyl)acetamide]
26 | ≤ 1 | CCOc1cc(C(=O)N2CC3(COC3)C2)ccc1Nc1nc2ccc(-c3ccc(NC(=O)Cc4ccc(F)cc4)cc3)cn2n1 [Example 02.23, N-[4-(2-{[2-ethoxy-4-(2-oxa-6-azaspiro[3.3]hept-6-ylcarbonyl)phenyl]amino}[,2]triazolo[1,5-a]pyridin-6-yl)phenyl]-2-(4-fluorophenyl)acetamide]
